From PMC6325219, “Preclinical Characterization of NVR 3-778, a First-in-Class Capsid Assembly Modulator against Hepatitis B Virus” (Antimicrobial Agents and Chemotherapy, 2018)
“And” between values parts separate entries of the source, which are not always exact repeats. Equal entries are not always repeated. Structures can show the parent of a compound that is named as a salt. Marks after values point to notes of the source that are not given here.

Legend:
HBV T109M core variant = tested on: HBV T109M core variant; parameters: method as in doi:10.1016/S0168-8278(18)30439-2; conditions: phase 1b; cited from earlier work
HBV GT B (wild-type HBV) [1] = tested on: HBV GT B (wild-type HBV); parameters: method as in PMID 26598693; conditions: reference; previously published results; cited from earlier work
[2] = tested on: HBV core protein variant Y118F; parameters: method as in PMID 26598693; conditions: previously published results; cited from earlier work
[3] = tested on: HBV core protein variant T109S; parameters: method as in PMID 26598693; conditions: previously published results; cited from earlier work
[4] = tested on: HBV core protein variant T109M; parameters: method as in PMID 26598693; conditions: previously published results; cited from earlier work
[5] = tested on: HBV core protein variant T109I; parameters: method as in PMID 26598693; conditions: previously published results; cited from earlier work
[6] = tested on: HBV core protein variant I105L; parameters: method as in PMID 26598693; conditions: previously published results; cited from earlier work
[7] = tested on: HBV core protein variant I105T; parameters: method as in PMID 26598693; conditions: previously published results; cited from earlier work
[8] = tested on: HBV core protein variant I105V; parameters: method as in PMID 26598693; conditions: previously published results; cited from earlier work
HBV [9] = test: Antiviral studies using HepG2.2.15 cells (HBV DNA and HBV RNA readouts); format: cell-based, hepatitis B virus (GT D); conditions: HepG2.2.15 cells
Protocol: In combination studies, cells were treated with compounds either alone or in combination after combining the compounds in a checkerboard format. In studies examining the effect of human serum, serially diluted NVR 3-778 was added into cell culture medium containing 0% to 40% human serum (BioreclamationIVT). Cells were incubated with the compounds for 3 days, after which the medium was removed, fresh medium containing the compounds was added to the cells, and the cells were incubated for another 3 days prior to harvesting of the supernatants or cells for antiviral assays. To quantify intracellular encapsidated rcDNA or encapsidated pgRNA, cells were first solubilized using lysis buffer containing 1% NP-40 and 10 mM CaCl2. The cytoplasmic fraction was then treated with S7 nuclease (6 units) to remove nonencapsidated nucleic acids, after which the S7 nuclease was inactivated by the addition of EDTA (0.5 M). […] The levels of HBV DNA were determined by a bDNA assay as described above (Affymetrix). Supernatants or cell lysates containing HBV RNA were treated with proteinase K (2.5 µg) at 50°C for 40 min, transferred to a capture plate containing HBV RNA probe sets, and hybridized overnight at 55°C. Captured HBV RNA was measured by the addition of a chemiluminescent substrate using a QuantiGene assay (Affymetrix). […] At day 6, the CellTiter-Glo reagent was added to the cells and viability was determined according to the manufacturer’s protocol (Promega). Luminescence signals were measured at 0.2 s using a Victor X4 multimode plate reader (PerkinElmer).

HBV [10] = test: Combination study of NVR 3-778 with nucleos(t)ide analogs in HepG2.2.15 cells (MacSynergy II, CalcuSyn); format: cell-based, hepatitis B virus (GT D); conditions: in combination with NVR 3-778; for Antagonism / Synergy: HepG2.2.15 cells, 6 days, MacSynergy II, 95% confidence; for CalcuSyn-predicted effect: based on overall CI; for MacSynergy-predicted effect: volumes <25 µM^2% defined as insignificant
Protocol: The effect of the compound combinations on cell viability was evaluated by measuring the intracellular ATP levels of HepG2.2.15 cells.
HepG2.2.15 cells were seeded in 96-well plates at a density of 40,000 cells/well and incubated with serially diluted compounds at a final DMSO concentration of 0.5%. In combination studies, cells were treated with compounds either alone or in combination after combining the compounds in a checkerboard format. In studies examining the effect of human serum, serially diluted NVR 3-778 was added into cell culture medium containing 0% to 40% human serum (BioreclamationIVT). Cells were incubated with the compounds for 3 days, after which the medium was removed, fresh medium containing the compounds was added to the cells, and the cells were incubated for another 3 days prior to harvesting of the supernatants or cells for antiviral assays. To quantify intracellular encapsidated rcDNA or encapsidated pgRNA, cells were first solubilized using lysis buffer containing 1% NP-40 and 10 mM CaCl2. The cytoplasmic fraction was then treated with S7 nuclease (6 units) to remove nonencapsidated nucleic acids, after which the S7 nuclease was inactivated by the addition of EDTA (0.5 M). To quantify extracellular HBV DNA or HBV RNA, supernatants from HepG2.2.15 cells were treated with Turbo DNase at 37°C for 60 min, followed by inactivation of DNase at 75°C for 15 min. The levels of HBV DNA were determined by a bDNA assay as described above (Affymetrix). Supernatants or cell lysates containing HBV RNA were treated with proteinase K (2.5 µg) at 50°C for 40 min, transferred to a capture plate containing HBV RNA probe sets, and hybridized overnight at 55°C. Captured HBV RNA was measured by the addition of a chemiluminescent substrate using a QuantiGene assay (Affymetrix). To determine the cytotoxicity effect of the compounds on proliferating cells, HepG2.2.15 cells were seeded in 96-well plates at a density of 10,000 cells/well and incubated with serially diluted compounds at a final DMSO concentration of 0.5% for 3 days, after which the medium was removed, fresh medium containing the compounds was added to the cells, and the cells were incubated for another 3 days. At day 6, the CellTiter-Glo reagent was added to the cells and viability was determined according to the manufacturer’s protocol (Promega). Luminescence signals were measured at 0.2 s using a Victor X4 multimode plate reader (PerkinElmer).
(§1) To determine percent inhibition, the mean background signal from wells containing only culture medium was subtracted from the signal for all other samples, and percent inhibition at each compound concentration was calculated by normalization to the signals for HepG2.2.15 cells treated with 0.5% DMSO. […] Both CalcuSyn and MacSynergy II (Ann Arbor, MI) software were used to evaluate the effect of compound combinations ([27]). After data analysis at the 95% confidence level, values of synergy or antagonism of <25 µM^2% were defined as insignificant, those between 25 and 50 µM^2% were defined as minor, those between 50 and 100 µM^2% were defined as moderate, and those of >100 µM^2% were defined as strong.

HBV GT B (wild-type HBV) [11] = test: Transient-transfection antiviral study in HepG2 cells, GT B (wild-type HBV); format: cell-based, hepatitis B virus; conditions: Hepatitis B virus, HepG2, read-out: WT EC50
Protocol: (§4) Cells were cotransfected with the HBV plasmids (100 ng/well) and a Gaussia expression plasmid (10 ng/well) (Thermo Scientific) using the Lipofectamine LTX Plus transfection reagent (Life Technologies). Transfection mixtures were removed after overnight incubation, and cells were treated with serially diluted NVR 3-778 at a final dimethyl sulfoxide (DMSO) concentration of 0.5%. After 3 days of incubation with the compound, the supernatants were collected and secreted Gaussia luciferase was measured using a Gaussia Flash luciferase assay kit (Thermo Scientific). […] Samples were diluted into lysis buffer (Affymetrix) containing 2.5 µg proteinase K (Affymetrix) at 50°C for 40 min. Intracellular encapsidated HBV DNA was denatured for 30 min at 25°C in 0.2 M NaOH (Sigma) and incubated with HBV DNA probes designed to hybridize to the minus-strand HBV DNA (Affymetrix). The denatured DNA was subsequently detected using a QuantiGene assay kit, according to the branched DNA (bDNA) assay recommended by the manufacturer (Affymetrix).

HBV rtA181V variant = test: microbe, parasite or virus in culture; format: cell-based, hepatitis B virus; conditions: for EC50 fold change, rtA181V: ratio of mean EC50 against variant over WT HBV, HepG2 cells
Text: (§2) Plasmids containing HBV DNA with rtN236T, rtA181V, rtA181V/N236T, and rtL180M/M204V/N236T were generated using the GT B WT or rtL180M/M204V DNA-containing plasmids and site-directed mutagenesis (Agilent Technologies). A panel of nine different HBV core variants (cW102G, cW102R, cI105V, cI105L, cI105T, cT109S, cT109M, cT109I, and cY118F) was generated, also using the GT B WT DNA-containing plasmid and site-directed mutagenesis. The full-length genome from all plasmids was sequenced to confirm that only the intended nucleotide change(s) was present. Finally, HBV sequences from genotypes A (GenBank accession number AF305422), C (GenBank accession number AB033550), D (GenBank accession number V01460), E (GenBank accession number AB274971), F (GenBank accession number AB036912), G (GenBank accession number AF160501), and H (GenBank accession number AB375159) were gene synthesized as 1.1 times the genome length together with part of the CMV promoter at the 5′ end. The gene-synthesized piece was validated by sequencing and subcloned into the pCMV-HBV plasmid using the restriction sites SalI and NdeI (Genewiz, USA).
(§3) HepG2 cells were seeded in 96-well plates at a density of 20,000 cells/well and allowed to attach overnight at 37°C in 5% CO2. Cells were cotransfected with the HBV plasmids (100 ng/well) and a Gaussia expression plasmid (10 ng/well) (Thermo Scientific) using the Lipofectamine LTX Plus transfection reagent (Life Technologies). Transfection mixtures were removed after overnight incubation, and cells were treated with serially diluted NVR 3-778 at a final dimethyl sulfoxide (DMSO) concentration of 0.5%. After 3 days of incubation with the compound, the supernatants were collected and secreted Gaussia luciferase was measured using a Gaussia Flash luciferase assay kit (Thermo Scientific). Cells were lysed with 0.33% NP-40 (Thermo Scientific), and the cytoplasmic fractions were treated with 2 units of Turbo DNase (Invitrogen) and 10 units of S7 nuclease (Roche) in CutSmart buffer (New England Biolabs) containing 25 µM CaCl2 (G-Biosciences) at 37°C for 60 min, followed by inactivation of the enzymes at 75°C for 15 min. Samples were diluted into lysis buffer (Affymetrix) containing 2.5 µg proteinase K (Affymetrix) at 50°C for 40 min. Intracellular encapsidated HBV DNA was denatured for 30 min at 25°C in 0.2 M NaOH (Sigma) and incubated with HBV DNA probes designed to hybridize to the minus-strand HBV DNA (Affymetrix). The denatured DNA was subsequently detected using a QuantiGene assay kit, according to the branched DNA (bDNA) assay recommended by the manufacturer (Affymetrix).
as §1

[12] = tested on: HBV rtL180M/M204V variant; test: microbe, parasite or virus in culture; format: cell-based, hepatitis B virus; conditions: for EC50 fold change, rtL180M/M204V: ratio of mean EC50 against variant over WT HBV, HepG2 cells
Text: as §2, §3, §1

[13] = tested on: HBV rtL180M/M204V/N236T variant; test: microbe, parasite or virus in culture; format: cell-based, hepatitis B virus; conditions: ratio of mean EC50 against variant over WT HBV, HepG2 cells
Text: as §2, §3, §1

[14] = tested on: HBV rtA181V/N236T variant; format: cell-based, hepatitis B virus; conditions: ratio of mean EC50 against variant over WT HBV, HepG2 cells
Text: as §2, §3, §1

HBV rtN236T variant = format: cell-based, hepatitis B virus; conditions: ratio of mean EC50 against variant over WT HBV, HepG2 cells
Text: as §2, §3, §1

[15] = tested on: nucleoside-resistant HBV variants; test: Transient-transfection antiviral study, panel of nucleoside-resistant HBV variants (summary statements); format: cell-based, hepatitis B virus; conditions: versus WT HBV
Protocol: as §4

Structure (SMILES) | EC50 FC, wild type (HBV GT B (wild-type HBV) [1]) [fold] | EC50 FC, Y118F [2] [fold] | EC50 FC, T109S [3] [fold] | EC50 FC, T109M [4] [fold] | EC50 FC, T109I [5] [fold] | EC50 FC, I105L [6] [fold] | EC50 FC, I105T [7] [fold] | EC50 FC, I105V [8] [fold] | Antagonism (HBV [10]) [μM^2%] | Synergy (HBV [10]) [μM^2%] | CalcuSyn-predicted effect (HBV [10]) | MacSynergy-predicted effect (HBV [10]) | EC50 (HBV GT B (wild-type HBV) [11]) [µM] | EC50 fold change, rtA181V (HBV rtA181V variant) | EC50 fold change, rtL180M/M204V [12] | EC50 fold change, rtL180M/M204V/N236T [13] | EC50 fold change, rtA181V/N236T [14] | EC50 fold change, rtN236T (HBV rtN236T variant) | also measured
O=C(NCc1cnc(C(F)(F)F)s1)c1ccc2c(c1)NC(=O)c1ccccc1S2(=O)=O [ABI-H0731] | – | – | – | – | – | – | – | – | – | – | – | – | – | – | – | – | – | – | Antiviral response in a patient with a preexisting T109M core variant (HBV T109M core variant): reduced antiviral response
COC(=O)C1=C(CN2CCOCC2)NC(c2nccs2)=N[C@@H]1c1ccc(F)cc1Br [NVR-010-001-E2] | 1 | 3.7 | 0.43 | 2.8 | 9.2 | 0.49 | 1.2 | 1.3 | – | – | – | – | – | – | – | – | – | – | –
COC(=O)C1=C(C)NC(c2ncc(F)cc2F)=N[C@H]1c1ccc(F)cc1Cl [Bay 41-4109] | 1 | 8.2 | 0.40 | 3.7 | 21 | 0.44 | 1.5 | 1.3 | – | – | – | – | – | – | – | – | – | – | –
C[C@H](Cn1cnc2c(N)ncnc21)OCP(=O)(O)O [TFV, tenofovir] | – | – | – | – | – | – | – | – | −7.3 | 18.5 | Slight to moderate synergy | Additive | – | – | – | – | – | – | Effect on HBV DNA production (HBV [9]): inhibited HBV DNA production; Effect on intracellular encapsidated HBV RNA and secreted HBV RNA (HBV [9]; dose-dependent): increased the levels
CC(C)OC(=O)OCOP(=O)(CO[C@H](C)Cn1cnc2c(N)ncnc21)OCOC(=O)OC(C)C [TDF, Tenofovir disoproxil fumarate] | – | – | – | – | – | – | – | – | – | – | – | – | 0.032 ± 0.015 | 1.4 ± 0.05^d fold | 1.1 ± 0.3^d fold | 2.9 ± 1.5^b fold | 2.8 ± 1.4^b fold | 2.2 ± 1.0^b fold | EC50 (HBV rtA181V variant; Hepatitis B virus, HepG2, read-out: EC50 (mean), rtA181V variant): 0.043 µM; EC50 ([12]; Hepatitis B virus, HepG2, read-out: EC50 (mean), rtL180M/M204V variant): 0.034 µM; Reduction of antiviral activity against the variants that contained rtN236T [15]: about 3 fold
C=C1[C@H](CO)[C@@H](O)C[C@@H]1n1cnc2c(=O)[nH]c(N)nc21 [ETV, entecavir] | – | – | – | – | – | – | – | – | −16.5 | 1.0 | Slight to moderate synergy | Additive | 0.0014 ± 0.0004 | 2.2 ± 0.5^a fold | 31 fold and 31 ± 16^a fold | 14 fold and 14 ± 4^a fold | 1.8 ± 0.6^d fold | 0.67 ± 0.22^d fold | –
